The test system of experiment [1] is Mena^INV cells. To be noted: both in vitro and in vivo; cited from earlier work.
Experiment [2] has as its system Mena^INV cells. Put plainly: in vivo invasion assay, collection needle containing EGF and erlotinib. Conditions: Mena^INV cells vs MTLn3-EGFP control cells; collection needle contained both EGF and erlotinib.
Source text: (B) Graphic of in vivo assay with needle collection. Primary tumor may be xenograft.
Collection needle contained both EGF and erlotinib. MTLn3-EGFP cells are control. **p<0.01, ***p<0.001.
Since cells expressing Mena^+ or Mena^INV/+ will move up an EGF gradient, when the cells expressing Mena^+ or Mena^INV/+ are in vivo, the cells expressing Mena^+ or Mena^INV/+ will move up the imposed EGF gradient and can be needle collected. If the putative agent does in fact inhibit Mena^+ or Mena^INV/+, the sensitivity of cells expressing Mena^+ or Mena^INV/+ drops and fewer cells will move up the EGF gradient.

For `C#Cc1cccc(Nc2ncnc3cc(OCCOC)c(OCCOC)cc23)c1` [erlotinib], the “resistance of cells to EGFR inhibitor” value in the experiment with Mena^INV cells [1] is “exhibit resistance”. Further, in the experiment on Mena^INV cells [2], the “sensitivity of in vivo invasion to inhibition by erlotinib” value is listed as “less sensitive to inhibition”.

Values taken from US20130004424A1, “METHODS FOR DETERMINING AGENTS TARGETING MENA ISOFORMS AND USES THEREOF FOR DIAGNOSIS AND TREATMENT OF METASTATIC TUMORS” (priority 2010, published 2013).
